In ChEMBL document CHEMBL1201861, “Genomics of Drug Sensitity in Cancer screening data, Wellcome Trust Sanger Institute”:

Key:
[1] = tested on: Kasumi 1; test: cells; type: functional, cell-based; conditions: Homo sapiens;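 also: growth inhibition of human Kasumi-1 cells, read out by a cell viability assay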
Description: SANGER: Inhibition of human KASUMI-1 cell growth in a cell viability assay.

[2] = tested on: SCC-3; test: cells; type: functional, cell-based; conditions: Homo sapiens;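 also: cell viability assay measuring inhibition of SCC-3 cell growth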
Description: SANGER: Inhibition of human SCC-3 cell growth in a cell viability assay.

[3] = tested on: SNU-C1; test: cells; type: functional, cell-based; conditions: Homo sapiens;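 also: growth inhibition of SNU-C1 human cells, read out by a cell viability assay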
Description: SANGER: Inhibition of human SNU-C1 cell growth in a cell viability assay.

[4] = tested on: SIG-M5; test: cells; type: functional, cell-based; conditions: Homo sapiens;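 also: cell viability assay read-out, measuring how strongly growth of cultured human SIG-M5 cells is inhibited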
Description: SANGER: Inhibition of human SIG-M5 cell growth in a cell viability assay.

[5] = tested on: CESS; test: SANGER: Inhibition of human CESS cell growth in a cell viability assay.; type: functional, cell-based
[6] = tested on: NCI-H2081; test: cells; type: functional, cell-based; conditions: Homo sapiens;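 also: growth inhibition of human NCI-H2081 cells, read out with a cell viability assay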
Description: SANGER: Inhibition of human NCI-H2081 cell growth in a cell viability assay.

[7] = tested on: RPMI 8402; test: SANGER: Inhibition of human RPMI-8402 cell growth in a cell viability assay.; type: functional, cell-based
[8] = tested on: MHH-CALL-2; test: cells; type: functional, cell-based; conditions: Homo sapiens;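 also: growth inhibition of the cell line, read out in a cell viability assay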
Description: SANGER: Inhibition of human MHH-CALL-2 cell growth in a cell viability assay.

[9] = tested on: CHP-126; test: cells; type: functional, cell-based; conditions: Homo sapiens
Description: SANGER: Inhibition of human CHP-126 cell growth in a cell viability assay.

[10] = tested on: NCI-H1522; test: cells; type: functional, cell-based; conditions: Homo sapiens;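 also: growth inhibition of NCI-H1522 cells, read out with a cell viability assay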
Description: SANGER: Inhibition of human NCI-H1522 cell growth in a cell viability assay.

[11] = tested on: NCI-H128; test: SANGER: Inhibition of human NCI-H128 cell growth in a cell viability assay.; type: functional, cell-based
[12] = tested on: LOUCY; test: cells; type: functional, cell-based; conditions: Homo sapiens;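 also: growth inhibition of human LOUCY cells, read out with a cell viability assay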
Description: SANGER: Inhibition of human LOUCY cell growth in a cell viability assay.

[13] = tested on: TE-15; test: cells; type: functional, cell-based; conditions: Homo sapiens;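 also: cell viability readout of growth inhibition in TE-15 cells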
Description: SANGER: Inhibition of human TE-15 cell growth in a cell viability assay.

[14] = tested on: SNU-16; test: cells; type: functional, cell-based; conditions: Homo sapiens;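 also: growth inhibition of human SNU-16 cells, determined with a cell viability readout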
Description: SANGER: Inhibition of human NCI-SNU-16 cell growth in a cell viability assay.

[15] = tested on: CMK; test: cells; type: functional, cell-based; conditions: Homo sapiens;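 also: growth inhibition of CMK cells, read out as cell viability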
Description: SANGER: Inhibition of human CMK cell growth in a cell viability assay.

[16] = tested on: WSU-NHL; test: cells; type: functional, cell-based; conditions: Homo sapiens;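 also: growth inhibition of human WSU-NHL cells, read out with a cell viability assay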
Description: SANGER: Inhibition of human WSU-NHL cell growth in a cell viability assay.

[17] = tested on: CA46; test: cells; type: functional, cell-based; conditions: Homo sapiens;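 also: growth inhibition of human CA46 cells, read out by a cell viability assay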
Description: SANGER: Inhibition of human CA46 cell growth in a cell viability assay.

[18] = tested on: EW-22; test: cells; type: functional, cell-based; conditions: Homo sapiens;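 also: growth inhibition of the EW-22 cell line, measured with a cell viability readout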
Description: SANGER: Inhibition of human EW-22 cell growth in a cell viability assay.

[19] = tested on: MRK-nu-1; test: cells; type: functional, cell-based; conditions: Homo sapiens;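 also: cell viability assay measuring growth suppression of human MRK-nu-1 cells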
Description: SANGER: Inhibition of human MRK-nu-1 cell growth in a cell viability assay.

[20] = tested on: EVSA-T; test: cells; type: functional, cell-based, Homo sapiens; conditions: Homo sapiens, EVSA-T;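 also: growth inhibition of EVSA-T cells, read out with a cell viability assay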
Description: SANGER: Inhibition of human EVSA-T cell growth in a cell viability assay.

[21] = tested on: SU-DHL-1; test: SANGER: Inhibition of human SU-DHL-1 cell growth in a cell viability assay.; type: functional, cell-based
[22] = tested on: EW-12; test: SANGER: Inhibition of human EW-12 cell growth in a cell viability assay.; type: functional, cell-based
[23] = tested on: ECC12; test: cells; type: functional, cell-based; conditions: Homo sapiens
Description: SANGER: Inhibition of human ECC12 cell growth in a cell viability assay.

[24] = tested on: JIYOYE; test: cells; type: functional, cell-based; conditions: Homo sapiens
Description: SANGER: Inhibition of human JiyoyeP-2003 cell growth in a cell viability assay.

[25] = tested on: NCI-H524; test: cells; type: functional, cell-based; conditions: Homo sapiens;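 also: growth inhibition of human NCI-H524 cells, read out through a cell viability assay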
Description: SANGER: Inhibition of human NCI-H524 cell growth in a cell viability assay.

[26] = tested on: Raji; test: cells; type: functional, cell-based; conditions: Homo sapiens;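 also: cell viability assay measuring inhibition of Raji cell growth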
Description: SANGER: Inhibition of human Raji cell growth in a cell viability assay.

[27] = tested on: NB1; test: cells; type: functional, cell-based; conditions: Homo sapiens;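 also: reduction of NB1 cell proliferation, read out with a viability assay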
Description: SANGER: Inhibition of human NB1 cell growth in a cell viability assay.

[28] = tested on: PF-382; test: cells; type: functional, cell-based; conditions: Homo sapiens
Description: SANGER: Inhibition of human PF-382 cell growth in a cell viability assay.

With `CNC(=O)c1cc(Oc2ccc(NC(=O)Nc3ccc(Cl)c(C(F)(F)F)c3)cc2)ccn1` [SORAFENIB] the IC50 [1] was over 4 µM, the IC50 [2] was over 4 µM and the IC50 [3] was over 4 µM. The IC50 [4] was 2.42 µM, the IC50 [5] was over 4 µM and the IC50 [6] was over 4 µM. The IC50 [7] was over 4 µM, the IC50 [8] was over 4 µM and the IC50 [9] was over 4 µM. It also gave an IC50 [10] of over 4 µM, an IC50 [11] of over 4 µM and an IC50 [12] of over 4 µM. The IC50 [13] was over 4 µM, the IC50 [14] was over 4 µM and the IC50 [15] was over 4 µM. It also gave an IC50 [16] of over 4 µM, an IC50 [17] of over 4 µM and an IC50 [18] of over 4 µM. For the same molecule, the IC50 [19] was 3.61 µM, the IC50 [20] was over 4 µM and the IC50 [21] was over 4 µM. The IC50 [22] was over 4 µM, the IC50 [23] was over 4 µM and the IC50 [24] was over 4 µM. For the same molecule, the IC50 [25] was over 4 µM, the IC50 [26] was over 4 µM and the IC50 [27] was over 4 µM. The IC50 [28] was over 4 µM.

`O=C(/C=C/c1ccccc1)NC(NC(=S)Nc1cccc2cccnc12)C(Cl)(Cl)Cl` (stereo not drawn) [SALUBRINAL] was tested, and the IC50 [1] was over 16 µM, the IC50 [2] was over 16 µM and the IC50 [3] was over 16 µM. The IC50 [4] was over 16 µM, the IC50 [5] was 11.7 µM and the IC50 [6] was over 16 µM. For the same molecule, the IC50 [7] was over 16 µM, the IC50 [8] was over 16 µM and the IC50 [9] was over 16 µM. It also gave an IC50 [10] of over 16 µM, an IC50 [11] of over 16 µM and an IC50 [12] of over 16 µM. For the same molecule, the IC50 [13] was over 16 µM, the IC50 [14] was over 16 µM and the IC50 [15] was 13.7 µM. It also gave an IC50 [16] of over 16 µM, an IC50 [17] of over 16 µM and an IC50 [19] of 7.75 µM. For the same molecule, the IC50 [20] was 12.9 µM, the IC50 [21] was over 16 µM and the IC50 [22] was over 16 µM. The IC50 [23] was over 16 µM, the IC50 [24] was over 16 µM and the IC50 [25] was over 16 µM. It also gave an IC50 [26] of over 16 µM, an IC50 [27] of over 16 µM and an IC50 [28] of over 16 µM.

`CS(=O)(=O)CCNCc1ccc(-c2ccc3ncnc(Nc4ccc(OCc5cccc(F)c5)c(Cl)c4)c3c2)o1` [LAPATINIB] gave an IC50 [1] of over 2 µM, an IC50 [2] of over 2 µM and an IC50 [3] of over 2 µM. The IC50 [4] was over 2 µM, the IC50 [5] was over 2 µM and the IC50 [6] was over 2 µM. The IC50 [7] was over 2 µM, the IC50 [8] was over 2 µM and the IC50 [9] was over 2 µM. It also gave an IC50 [10] of over 2 µM, an IC50 [11] of over 2 µM and an IC50 [12] of over 2 µM. For the same molecule, the IC50 [13] was over 2 µM, the IC50 [14] was over 2 µM and the IC50 [15] was over 2 µM. It also gave an IC50 [16] of over 2 µM, an IC50 [17] of over 2 µM and an IC50 [19] of over 2 µM. For the same molecule, the IC50 [20] was over 2 µM, the IC50 [21] was over 2 µM and the IC50 [22] was over 2 µM. The IC50 [23] was 0.0923 µM, the IC50 [24] was over 2 µM and the IC50 [25] was over 2 µM. It also gave an IC50 [26] of over 2 µM, an IC50 [27] of over 2 µM and an IC50 [28] of over 2 µM.

`C=C1C(=O)O[C@@H]2C3O[C@]3(C)CC/C=C(\C)CC[C@@H]12` (stereo partly drawn) showed an IC50 [1] of over 5 µM, an IC50 [2] of 2.8 µM and an IC50 [3] of over 5 µM. For the same molecule, the IC50 [4] was over 5 µM, the IC50 [5] was over 5 µM and the IC50 [6] was over 5 µM. The IC50 [7] was over 5 µM, the IC50 [8] was over 5 µM and the IC50 [9] was over 5 µM. The IC50 [10] was over 5 µM, the IC50 [11] was over 5 µM and the IC50 [12] was over 5 µM. For the same molecule, the IC50 [13] was over 5 µM, the IC50 [14] was over 5 µM and the IC50 [15] was over 5 µM. For the same molecule, the IC50 [16] was over 5 µM, the IC50 [17] was over 5 µM and the IC50 [18] was over 5 µM. For the same molecule, the IC50 [19] was 2.01 µM, the IC50 [20] was over 5 µM and the IC50 [21] was over 5 µM. The IC50 [22] was over 5 µM, the IC50 [23] was over 5 µM and the IC50 [24] was over 5 µM. For the same molecule, the IC50 [25] was over 5 µM, the IC50 [26] was over 5 µM and the IC50 [27] was over 5 µM. For the same molecule, the IC50 [28] was over 5 µM.

For `CCc1nc(N)nc(N)c1-c1ccc(Cl)cc1` [PYRIMETHAMINE], the IC50 [1] was over 20 µM, the IC50 [2] was 1.84 µM and the IC50 [3] was over 20 µM. The IC50 [4] was 7.98 µM, the IC50 [5] was 5.71 µM and the IC50 [6] was over 20 µM. The IC50 [7] was 8.12 µM, the IC50 [8] was over 20 µM and the IC50 [9] was over 20 µM. The IC50 [10] was over 20 µM, the IC50 [11] was over 20 µM and the IC50 [12] was 10.9 µM. The IC50 [13] was over 20 µM, the IC50 [14] was over 20 µM and the IC50 [15] was 2.46 µM. For the same molecule, the IC50 [16] was over 20 µM, the IC50 [17] was over 20 µM and the IC50 [18] was over 20 µM. It also gave an IC50 [19] of over 20 µM, an IC50 [20] of over 20 µM and an IC50 [21] of 10.8 µM. It also gave an IC50 [22] of over 20 µM, an IC50 [23] of 2.56 µM and an IC50 [24] of 10.9 µM. It also gave an IC50 [25] of over 20 µM, an IC50 [26] of over 20 µM and an IC50 [27] of over 20 µM. The IC50 [28] was 14.6 µM.
